System: murine podocytes
Assay: Podocyte HCS phenotypic assay, PAN-induced podocyte injury
Type: cell-based
Protocol: Conditionally immortalized human and murine podocytes were used in a majority of the assays. Human and murine podocytes were cultured as have been described previously (Saleem et al., JASN 13, 630-638 (2002); Mundel, Reiser et al., Experimental Cell Research, 236, p 248 (1997)). For example, murine podocytes derived from the mouse line H-2Kb-tsA58 were cultured under permissive conditions at 33° C. on rat-tail collagen coated dishes in RPMI medium supplemented with 10% heat inactivated FBS, penicillin and streptomycin (100 U/ml), and 10 U/ml recombinant mouse γ-interferon. Cells were then trypsinized and re-plated for differentiation at 37° C. in medium without γ-interferon. The cells were differentiated for 0 to 7 days and then reseeded to rat-tail collagen coated multi-well plates at a density of 1500/well or 500/well for 96 and 384 well plates, respectively. Cells were then further differentiated for another 5-14 days in the multi-well plates for subsequent experimentation with various reagents prior to fixation and analyses.
In some embodiments, podocytes were cultured at 37° C. for the first 7 days of differentiation in large tissue culture flasks and subsequently reseeded and further cultured at 37° C. in the 96-well assay plates for the next 4-6 days to provide low well-to-well variability in cell number in the assay plates and healthy podocytes expressing specific and well characterized podocyte markers synaptopodin and podocin.
Differentiated podocytes were cultured in 96-well or 384-well multiwall optical plates (PerkinElmer, Boston, Mass.). In some embodiments, differentiated podocytes were treated with various amounts of puromycin aminonucleoside (PAN), […] LPS, Adriamycin and other agents. In some embodiments, the cells were co-treated with chemical and other agents (such as mizouribine) to prevent damage from damaging agents (such as PAN). In other embodiments, the rescue agents were added 0-48 h after the addition of injury causing agents. In some embodiments, patient samples such as blood, serum, urine or other samples were added to differentiated podocytes to identify disease causing agents. In some embodiments, primary, differentiated patient podocytes were cultured to identify defects in structure and/or function.
After culturing for the appropriate time and treatment or control, cultured podocytes in multi-well optical plates were rinsed with phosphate buffered saline (PBS) and subsequently fixed using a solution of paraformaldehyde and sucrose in PBS (at a final concentration of 4% paraformaldehyde and 2% sucrose in PBS) for 30 min at room temperature. Following fixation, the cells were permeabilization using a solution of 0.3% Triton X-100 in PBS for 15 min at room temperature. For visualization of filamentous-actin (F-Actin) in cells, cells were stained with a solution of Alexa fluor 568 phalloidin (Invitrogen), as previously described. HCS CellMask Blue (Invitrogen) was used as a fluorescent stain for visualizing nuclei, cytoplasm and the individual cell boundaries. Additional proteins that were fluorescently labeled and analyzed using appropriate primary mAbs include synaptopodin (synpo, primary mAb from Santa Cruz), Paxillin (primary mAb clone Y113 from Millipore) for quantitation of focal adhesions, beta1 integrin, podocin, WT1 nephrin, CD2-AP may also be used. Other proteins may also be used for labeling. Appropriate secondary antibodies (fluorescently labeled) were used for fluorescent visualizations. High throughput confocal microscopy was done using the Opera LX (Perkin Elmer) with filters and exposure times according to manufacturer's instructions and as described before. Images were used in subsequent image analysis for quantitation of a variety of cellular parameters. Assays were performed in replicate wells for assay robustness.
Images for each frame of each well in multiple fluorescent channels were acquired using OPERA imaging system. […]

Compound: O=S(=O)(NCC1CC1)c1ccc(Nc2nccc(N3CCCc4cc(O)ccc43)n2)cc1 [Pyrintegrin]
- prevention of PAN induced injury, dose-response of percent damaged cells (FIG. 4A-4P) (30 ug/ml PAN, co-treatment, multi-parameter algorithm): prevented PAN induced injury
- EC50 (PAN 16 μg/ml, 48 hours, F-actin fibers per cell (FIG. 8), read-out: apparent half-maximal effective concentration (EC50), protection from PAN-induced damage): 0.8 µM
- dose-dependent protection of podocytes from PAN-induced injury (PAN 16-30 μg/ml, 48 hours, F-actin fibers and other parameters): dose dependently protected
- loss of actin stress fibers and focal adhesion complexes on PAN-induced injury (PAN cotreatment (FIG. 9B)): protected podocytes from the loss of actin stress fibers and focal adhesion complexes
- actin stress fibers in healthy cells (healthy cells, no PAN): small but significant increase in actin stress fibers

From patent publication US20170269060A1, “Assays and Compounds to Treat Kidney Diseases” (Rush University Medical Center, priority 2014, published 2017)
